Source: US11712434B2, “Compound having anti-cancer effect, and preparation method therefor and use thereof” (3D MEDICINES (BEIJING) CO., LTD., priority 2016, dated 2023)

What was measured:
Experiment in all cases: Cell proliferation assay (Alamar Blue)
Type in all cases: cell-based
SNU423 = SNU423 liver cancer cell line, 6 days culture
Description: (§1) 1. Instruments and Materials • Thermo 311 CO2 incubator; Haier biosafety cabinet; Molecular Devices microplate reader; Xiangyi brand L530 desktop low speed centrifuge; Olympus IX51 inverted fluorescence microscope, DMEM, RPMI 1640, MEM, DMEM/F12 1:1 medium, Fetal bovine serum, 0.25% trypsin solution, phosphate buffer (Thermo Fisher Shanghai Co., Ltd.); sigma dimethyl sulfoxide (DMSO), resazurin; 54 commercial tumor cell lines (including 26 liver cancer cell lines). Experimental drugs: compounds 1-12 and active drug Linifanib; chemotherapeutic drug Doxorubicin (HY-15142; Shanghai Qianyuan Biomedical Technology Co., Ltd.).
(§2) 2. Experimental Methods • 2.1 Cultivation of Different Cell Lines • 54 cell lines were cultured in a culture medium containing fetal bovine serum and placed in a 5% CO2 incubator at 37° C. for incubation. The cells were all grown in an adherent state, and the growth was observed under an inverted microscope, and subculture was performed when the cell confluence rate reached 80%-90%. The proportion and quantity of passage were determined by experimental needs. The ratio of subculture of this cell line was generally 1:2^˜1:3. • 2.2 Inhibition Effect on the Proliferation of Different Tumor Cell Lines • Cell test: 54 cell lines in logarithmic growth phase were inoculated in 96-well culture plates at 500^˜1×10^4/well (the optimal seeding density of each cell line was determined in pre-experiment), After incubating at 37° C. for 4 h in a 5% CO2 humidification incubator, added 10 μL of compounds 1-12 or Linifanib to each well, and tested 9 drug concentration gradients for each compound (diluted from the highest concentration of the test by 3.16 times). The solubility of each compound was different at a starting concentration of 100 or 30 μM, respectively. The QC reference compound Doxorubicin was added simultaneously to each cell line test, and the final drug concentrations were 10, 3.16, 1, 0.31, 0.1, 0.03, 0.01, 0.003, and 0.001 μM, respectively. In addition, a positive control group (100% inhibition) and a negative control group (0% inhibition) were set at the same time. The drug group was repeated for 2 wells per concentration, and the positive control group and the negative control group were repeated for 6 wells. After the culture was continued for 6 days in the incubator, AlamarBlue test operation was followed; • AlamarBlue test procedure: Incubated with 10 μL of AlamarBlue reagent per well for 1-4 h, shook for 1-2 min, MD microplate reader EX: 560 nm, EM: 590 nm wavelength to measure fluorescence, recorded the results, calculated the cell inhibition rate of the compound of the invention. Cell inhibition rate (%)=(A0% inhibition−A administration)/(A0% inhibition−A100% inhibition)×100%, and then using the method of nonlinear regression using GraphPad Prism 5.0 or MATILAB software (usually using four parameters) to graph and obtain a drug dose response curve to obtain an IC50 value of the compound of the present invention acting on a cancer cell line.

22RV1 = 22RV1 tumor cell line, 6 days culture
Description: as §1, §2

SNU354 = SNU354 liver cancer cell line, 6 days culture
Description: as §1, §2

HLF = HLF liver cancer cell line, 6 days culture
Description: as §1, §2

MDA-MB-435S = MDA-MB-435S tumor cell line, 6 days culture
Description: as §1, §2

Li-7 = Li-7 liver cancer cell line, 6 days culture
Description: as §1, §2

SNU761 = SNU761 liver cancer cell line, 6 days culture
Description: as §1, §2

SNU182 = SNU182 liver cancer cell line, 6 days culture
Description: as §1, §2

SNU449 = SNU449 liver cancer cell line, 6 days culture
Description: as §1, §2

SNU475 = SNU475 liver cancer cell line, 6 days culture
Description: as §1, §2

JHH2 = JHH2 liver cancer cell line, 6 days culture
Description: as §1, §2

HT1080 = HT1080 tumor cell line, 6 days culture
Description: as §1, §2

JHH6 = JHH6 liver cancer cell line, 6 days culture
Description: as §1, §2

JHH1 = JHH1 liver cancer cell line, 6 days culture
Description: as §1, §2

HUH6 = HUH6 liver cancer cell line, 6 days culture
Description: as §1, §2

JHH4 = JHH4 liver cancer cell line, 6 days culture
Description: as §1, §2

LNCAP-clone-FGC = LNCAP-clone-FGC tumor cell line, 6 days culture
Description: as §1, §2

MG63 = MG63 tumor cell line, 6 days culture
Description: as §1, §2

NCI-H716 = NCI-H716 tumor cell line, 6 days culture
Description: as §1, §2

SK-HEP-1 = SK-HEP-1 liver cancer cell line, 6 days culture
Description: as §1, §2

SNU398 = SNU398 liver cancer cell line, 6 days culture
Description: as §1, §2

TE-6 = TE-6 tumor cell line, 6 days culture
Description: as §1, §2

TE-15 = TE-15 tumor cell line, 6 days culture
Description: as §1, §2

SNU387 = SNU387 liver cancer cell line, 6 days culture
Description: as §1, §2

KM12 = KM12 tumor cell line, 6 days culture
Description: as §1, §2

NCI-H1703 = NCI-H1703 (lung cancer cells), 6 days culture
Description: as §1, §2

JHH5 = JHH5 liver cancer cell line, 6 days culture
Description: as §1, §2

Cc1ccc(F)c(NC(=O)Nc2ccc(-c3cccc4[nH]nc(NC(=O)C[C@H](N)C(=O)N[C@@H](CCC(=O)O)C(=O)O)c34)cc2)c1 [Compound 1]
IC50 (SNU423; Homo sapiens, SNU-423, 144 h): 25.4 µM | IC50 (22RV1; Homo sapiens, 144 h): 8.16 µM | IC50 (SNU354; Homo sapiens, SNU-354, 144 h): 3.59 µM | IC50 (HLF; 144 h): 5.24 µM | IC50 (MDA-MB-435S; Homo sapiens, 144 h): 10.5 µM | IC50 (Li-7; 144 h): 7.29 µM | IC50 (SNU761; 144 h): 12.6 µM | IC50 (SNU182; Homo sapiens, SNU-182, 144 h): 30.9 µM | IC50 (SNU449; Homo sapiens, SNU-449, 144 h): 16.5 µM | IC50 (SNU475; Homo sapiens, SNU-475, 144 h): 4.81 µM | IC50 (JHH2; JHH-2, 144 h): 43.6 µM | IC50 (HT1080; Homo sapiens, HT-1080, 144 h): 10.4 µM | IC50 (JHH6; 144 h): 6.57 µM | IC50 (JHH1; 144 h): 21.4 µM | IC50 (HUH6; Homo sapiens, HuH-6, 144 h): 52.9 µM | IC50 (JHH4; JHH-4, 144 h): 25 µM | IC50 (LNCAP-clone-FGC; Homo sapiens, 144 h): 15.6 µM | IC50 (MG63; Homo sapiens, MG-63, 144 h): 2.34 µM | IC50 (NCI-H716; Homo sapiens, 144 h): 5.49 µM | IC50 (SK-HEP-1; Homo sapiens, SK-HEP1, 144 h): 16.6 µM | IC50 (SNU398; Homo sapiens, SNU-398, 144 h): 1.75 µM | IC50 (TE-6; Homo sapiens, 144 h): 10.5 µM | IC50 (TE-15; Homo sapiens, 144 h): 2.94 µM | IC50 (SNU387; Homo sapiens, SNU-387, 144 h): 22.3 µM | IC50 (KM12; Homo sapiens, 144 h): 3.71 µM | IC50 (NCI-H1703; Homo sapiens, 144 h): 0.03 µM | IC50 (JHH5; 144 h): 16.6 µM

Cc1ccc(F)c(NC(=O)Nc2ccc(-c3cccc4[nH]nc(NC(=O)CCCCCNC(=O)C[C@H](N)C(=O)O)c34)cc2)c1 [Compound 11]
IC50 (SNU423): > 100 µM | IC50 (22RV1): > 100 µM | IC50 (SNU354): > 100 µM | IC50 (HLF): 95.7 µM | IC50 (MDA-MB-435S): > 100 µM | IC50 (Li-7): > 100 µM | IC50 (SNU761): > 100 µM | IC50 (SNU182): > 100 µM | IC50 (SNU449): > 100 µM | IC50 (SNU475): > 100 µM | IC50 (JHH2): > 100 µM | IC50 (HT1080): > 100 µM | IC50 (JHH6): > 100 µM | IC50 (JHH1): > 100 µM | IC50 (HUH6): > 100 µM | IC50 (JHH4): > 100 µM | IC50 (LNCAP-clone-FGC): > 100 µM | IC50 (MG63): > 100 µM | IC50 (NCI-H716): 67.4 µM | IC50 (SK-HEP-1): > 100 µM | IC50 (SNU398): > 100 µM | IC50 (TE-6): > 100 µM | IC50 (TE-15): > 100 µM | IC50 (SNU387): > 100 µM | IC50 (KM12): > 100 µM | IC50 (NCI-H1703): 0.83 µM | IC50 (JHH5): > 100 µM

Cc1ccc(F)c(NC(=O)Nc2ccc(-c3cccc4[nH]nc(NC(=O)C[C@H](N)C(=O)O)c34)cc2)c1 [Compound 10]
IC50 (SNU423; Homo sapiens, SNU-423, 144 h): 15.3 µM | IC50 (22RV1; Homo sapiens, 144 h): 6.37 µM | IC50 (SNU354; Homo sapiens, SNU-354, 144 h): 3.33 µM | IC50 (HLF; 144 h): 4.85 µM | IC50 (MDA-MB-435S; Homo sapiens, 144 h): 9.46 µM | IC50 (Li-7; 144 h): 5.28 µM | IC50 (SNU761; 144 h): 8.73 µM | IC50 (SNU182; Homo sapiens, SNU-182, 144 h): 22.1 µM | IC50 (SNU449; Homo sapiens, SNU-449, 144 h): 13.9 µM | IC50 (SNU475; Homo sapiens, SNU-475, 144 h): 4.39 µM | IC50 (JHH2; JHH-2, 144 h): 36.8 µM | IC50 (HT1080; Homo sapiens, HT-1080, 144 h): 7.83 µM | IC50 (JHH6; 144 h): 5.38 µM | IC50 (JHH1; 144 h): 14.5 µM | IC50 (HUH6; Homo sapiens, HuH-6, 144 h): 43.8 µM | IC50 (JHH4; JHH-4, 144 h): 14.4 µM | IC50 (LNCAP-clone-FGC; Homo sapiens, 144 h): 14.8 µM | IC50 (MG63; Homo sapiens, MG-63, 144 h): 1.95 µM | IC50 (NCI-H716; Homo sapiens, 144 h): 5.09 µM | IC50 (SK-HEP-1; Homo sapiens, SK-HEP1, 144 h): 14.9 µM | IC50 (SNU398; Homo sapiens, SNU-398, 144 h): 1.64 µM | IC50 (TE-6; Homo sapiens, 144 h): 6.98 µM | IC50 (TE-15; Homo sapiens, 144 h): 2.58 µM | IC50 (SNU387; Homo sapiens, SNU-387, 144 h): 20.1 µM | IC50 (KM12; Homo sapiens, 144 h): 2.43 µM | IC50 (NCI-H1703; Homo sapiens, 144 h): 0.02 µM | IC50 (JHH5; 144 h): 13.4 µM

Cc1ccc(F)c(NC(=O)Nc2ccc(-c3cccc4[nH]nc(NC(=O)C[C@H](N)C(=O)N[C@@H](CCC(=O)N[C@@H](CCC(=O)N[C@@H](CCC(=O)N[C@@H](CCC(=O)O)C(=O)O)C(=O)O)C(=O)O)C(=O)O)c34)cc2)c1 [Compound 2]
IC50 (SNU423; Homo sapiens, SNU-423, 144 h): 33.2 µM | IC50 (22RV1; Homo sapiens, 144 h): 11.5 µM | IC50 (SNU354; Homo sapiens, SNU-354, 144 h): 8.62 µM | IC50 (HLF; 144 h): 10.8 µM | IC50 (MDA-MB-435S; Homo sapiens, 144 h): 18.6 µM | IC50 (Li-7; 144 h): 19.5 µM | IC50 (SNU761; 144 h): 19.5 µM | IC50 (SNU182; Homo sapiens, SNU-182, 144 h): 46.2 µM | IC50 (SNU449; Homo sapiens, SNU-449, 144 h): 25.7 µM | IC50 (SNU475; Homo sapiens, SNU-475, 144 h): 11.2 µM | IC50 (JHH2; JHH-2, 144 h): 88.2 µM | IC50 (HT1080; Homo sapiens, HT-1080, 144 h): 24.9 µM | IC50 (JHH6; 144 h): 10.9 µM | IC50 (JHH1; 144 h): 33.9 µM | IC50 (HUH6; Homo sapiens, HuH-6, 144 h): 79 µM | IC50 (JHH4; JHH-4, 144 h): 36.8 µM | IC50 (LNCAP-clone-FGC; Homo sapiens, 144 h): 26.5 µM | IC50 (MG63; Homo sapiens, MG-63, 144 h): 5.49 µM | IC50 (NCI-H716; Homo sapiens, 144 h): 10.8 µM | IC50 (SK-HEP-1; Homo sapiens, SK-HEP1, 144 h): 31 µM | IC50 (SNU398; Homo sapiens, SNU-398, 144 h): 4.63 µM | IC50 (TE-6; Homo sapiens, 144 h): 27.6 µM | IC50 (TE-15; Homo sapiens, 144 h): 7.29 µM | IC50 (SNU387; Homo sapiens, SNU-387, 144 h): 47.9 µM | IC50 (KM12; Homo sapiens, 144 h): 5.48 µM | IC50 (NCI-H1703; Homo sapiens, 144 h): 0.07 µM | IC50 (JHH5; 144 h): 24.7 µM
